Experimental findings from US5565494A, “Antitumor compositions and methods of treatment” (Eli Lilly and Company, priority 1995, dated 1996) are described below.

“And” between values parts separate entries of the source, which are not always exact repeats. Equal values may be shown once.

Format in all cases: in vivo
For data set [1], the system named is 6C3HED lymphosarcoma (Gardner lymphosarcoma, GLS). Nature of the data set: Antitumor activity in C3H mice bearing 6C3HED lymphosarcoma allograft, oral administration. Conditions: for Percent Inhibition of tumor growth: tumor measured five days after treatment ended. From the text: A third tumor model employed C3H mice bearing the widely used allograft 6C3HED lymphosarcoma, also known as the Gardner lymphosarcoma (GLS). The 6C3HED lymphosarcoma was obtained from the Division of Cancer Treatment, National Cancer Institute, Tumor Bank, maintained at E.G. and G. Mason Research (Worcester, Mass.).
(§1) First passage tumors were stored in liquid nitrogen, using standard techniques. The transplanted tumor was reestablished from the Tumor Bank every six months or as needed. The tumor was maintained by serial passage twice weekly in the host mice.
(§2) In the procedures utilized here, the tumor was removed from passage animals and minced into 1- to 3-mm cubic fragments using sterile techniques. Tumor pieces were checked for sterility using both Antibiotic Medium 1 and Brain Heart Infusion (Difco, Detroit, Mich.). The xenograft tumor pieces were implanted into the recipient CD1 Nu/Nu mice subcutaneously in an axillary site by trochar. The allograft 6C3HED tumor pieces were implanted into the recipient C3H mice in an analogous fashion.
Drug therapy on the appropriate schedule was initiated seven days after tumor implantation. […] The total dosage volume for each administration was 0.5 ml. All animals were weighed at the beginning and end of administration of the subject compounds. Food and water were provided ad libitum.
(§3) Each control group and each dosage level of the treated groups consisted of 9 or 10 mice selected at random from the pool of implanted animals. The formulations were administered orally by gavage with the use of an 18-gauge needle. Compounds were dosed daily for 10 days for the studies using the human tumor xenografts and 8 days for the studies using the allograft.
The tumor was measured five days after treatment ended with two dimensional measurements (width and length) of the tumor taken using digital electronic calipers interfaced to a microcomputer. […] Tumor weights were calculated from these measurements using the following formula: [formula]

For data set [2], the system named is HXGC3 human colon adenocarcinoma. Kind of data set: Antitumor activity in mice bearing HXGC3 human colon adenocarcinoma xenograft, oral administration. Conditions: for Toxic/Total (mice which died relative to total in group): HXGC3, oral gavage daily for 10 days; for Percent Inhibition of tumor growth: po.
Description: (§4) Two of the tumor models used for showing the anti-neoplastic activity of the sulfonylureas of this invention were the human colon xenografts, HXGC3 and VRC5. J. A. Houghton and D. M. Taylor, British Journal of Cancer, 37:213-223 (1978). These tumors were obtained from St. Jude's Children's Research Hospital and have been widely used as human tumor models.
as §1, §2
(§5) Drug therapy on the appropriate schedule was initiated seven days after tumor implantation. The compound being tested was mixed with 2.5% Emulphor EL620 from GAF Corporation (1:40 dilution in 0.9% saline). The total dosage volume for each administration was 0.5 ml. All animals were weighed at the beginning and end of administration of the subject compounds. Food and water were provided ad libitum.
as §3
(§6) The tumor was measured five days after treatment ended with two dimensional measurements (width and length) of the tumor taken using digital electronic calipers interfaced to a microcomputer. J. F. Worzalla, et Investigational New Drugs, 8:241-251 (1990). Tumor weights were calculated from these measurements using the following formula: [formula] At least one control group of an equal number of mice was treated with the same volume of 2.5% Emulphor only. The percent inhibition is determined by subtracting the ratio of the mean tumor size of the test group relative to the control group from one and multiplying the result by 100.
(§7) The results of several experiments in mice bearing the HXGC3 and VRC5 human colon adenocarcinomas and the 6C3HED lymphosarcoma when the Formula I compounds were administered orally are provided in Table I. In the table, Column 1 refers to the example number of the compound tested; Column 2 describes the particular human tumor xenograft or mouse allograft being studied; Column 3 gives the dosage level of the compound of Formula I in milligrams per kilogram of body weight; Column 4 describes the percent inhibition of tumor growth; and Column 5 tallies the number of mice which died during the course of the experiment relative to the total number of animals in the group.
(In general: In xenograft studies the graft and the host belong to different species.)

Data set [3] concerns VRC5 human colon adenocarcinoma. Nature of the data set: Antitumor activity in mice bearing VRC5 human colon adenocarcinoma xenograft, oral administration. Particulars: for Toxic/Total (mice which died relative to total in group): VRC5, oral gavage daily for 10 days; for Percent Inhibition of tumor growth: po.
Description: as §4, §1, §2, §5, §3, §6, §7

The mark [4] stands for this setting: 6C3HED, 150 mg/kg, oral gavage daily for 8 days.
The mark [5] stands for this setting: 6C3HED, 300 mg/kg, oral gavage daily for 8 days.
Setting [6] is: Mus musculus, 6C3HED, po, read-out: Percent Inhibition of tumor growth.
Setting [7] is: 6C3HED, 600 mg/kg, oral gavage daily for 8 days.

As for `CC(C)Nc1ccc(S(=O)(=O)NC(=O)Nc2ccc(Cl)c(Cl)c2)cc1` [Example 11], in data set [1] (setting [4]), the “Toxic/Total (mice which died relative to total in group)” value is 0/10 and the “Percent Inhibition of tumor growth” value turned out to be 71%. Also, in data set [1] (setting [5]), the “Toxic/Total (mice which died relative to total in group)” value is 1/10 and the “Percent Inhibition of tumor growth” value is recorded as 96%.
For the compound `O=C(Nc1ccc(Cl)cc1)NS(=O)(=O)c1ccc(N2CCCC2)cc1` [Example 7, N-[[(4-chlorophenyl)amino]-carbonyl]-4-(1-pyrrolidinyl) benzenesulfonamide], the “Toxic/Total (mice which died relative to total in group)” value in data set [1] (setting [4]) is listed as 0/10. Further, in data set [1] (setting [5]), the “Toxic/Total (mice which died relative to total in group)” value is 0/10. Also, in data set [1] (setting [6]), the inhibition in vivo at 150 mg/kg came out at 44% and the inhibition in vivo at 300 mg/kg is 48%.
`CCN(CC)c1ccc(S(=O)(=O)NC(=O)Nc2ccc(Cl)c(Cl)c2)cc1` [Example 12]: the “Toxic/Total (mice which died relative to total in group)” value in data set [1] (setting [4]) was 0/10. Also, the “Toxic/Total (mice which died relative to total in group)” value in data set [1] (setting [5]) is recorded as 0/10. In data set [1] (setting [6]), the inhibition in vivo at 150 mg/kg was 54% and the inhibition in vivo at 300 mg/kg was found to be 70%.
`CN(C)c1cccc(S(=O)(=O)NC(=O)Nc2ccc(Cl)cc2)c1` [Example 4, N-[[(4-chlorophenyl)amino]carbonyl]-3-(dimethylamino)benzenesulfonamide]: in data set [1] (setting [4]), the “Toxic/Total (mice which died relative to total in group)” value is listed as 0/10. In addition, the “Toxic/Total (mice which died relative to total in group)” value in data set [1] (setting [5]) was 0/10. Besides, in data set [1] (setting [6]), the inhibition in vivo at 150 mg/kg is 73% and the inhibition in vivo at 300 mg/kg is 95%.
Consider `CNc1ccc(S(=O)(=O)NC(=O)Nc2ccc(Cl)c(Cl)c2)cc1` [Example 10], for which, in data set [1] (setting [6]), the inhibition in vivo at 300 mg/kg is 100% and the inhibition in vivo at 600 mg/kg came to 100%. Besides, in data set [1] (mouse, in vivo), the “Toxic/Total (mice which died relative to total in group)” value is 2/10 and 0/10.
Turning to `CN(C)c1ccc(S(=O)(=O)NC(=O)Nc2ccc(Cl)c(Cl)c2)cc1` [Example 2, N-[[(3,4-dichlorophenyl)amino]carbonyl]-4-(dimethylamino)benzenesulfonamide], the “Toxic/Total (mice which died relative to total in group)” value in data set [1] (6C3HED, 20 mg/kg, oral gavage daily for 8 days) is reported as 0/10; in data set [1] (6C3HED, 40 mg/kg, oral gavage daily for 8 days), 0/10; in data set [1] (6C3HED, 80 mg/kg, oral gavage daily for 8 days), 0/10; in data set [1] (6C3HED, 160 mg/kg, oral gavage daily for 8 days) it was 0/10; in data set [2] (150 mg/kg), 0/10; in data set [2] (300 mg/kg), 0/10. Further, the “Toxic/Total (mice which died relative to total in group)” value in data set [2] (600 mg/kg) is listed as 1/10; in data set [2] (1200 mg/kg) it was 1/10; in data set [3] (150 mg/kg), 0/10; in data set [3] (300 mg/kg) it was 0/10; in data set [3] (600 mg/kg), 1/10; in data set [3] (1200 mg/kg), 0/10. For the same compound, in data set [1] (setting [6]), the inhibition in vivo at 20 mg/kg stood at 35%. The inhibition in vivo at 40 mg/kg in data set [1] (setting [6]) stood at 51%. For the same compound, the inhibition in vivo at 80 mg/kg in data set [1] (setting [6]) is 89%. The inhibition in vivo at 160 mg/kg in data set [1] (setting [6]) worked out at 97%. Moreover, the “Percent Inhibition of tumor growth” value in data set [2] (150 mg/kg), in data set [2] (300 mg/kg), in data set [2] (600 mg/kg), in data set [2] (1200 mg/kg), in data set [3] (150 mg/kg) and in data set [3] (300 mg/kg) was 100% in each case. Also, the “Percent Inhibition of tumor growth” value in data set [3] (600 mg/kg) and in data set [3] (1200 mg/kg) was 100% throughout.
Regarding `Nc1ccc(S(=O)(=O)NC(=O)Nc2ccc(Cl)c(Cl)c2)cc1` [Example 8, N-[[(3,4-dichlorophenyl)amino]-carbonyl]-4-(amino) benzenesulfonamide], in data set [1] (setting [6]), the inhibition in vivo at 194 mg/kg worked out at 34%, the inhibition in vivo at 388 mg/kg amounted to 29% and the inhibition in vivo at 775 mg/kg was determined as 100%. For the same compound, the “Toxic/Total (mice which died relative to total in group)” value in data set [1] (mouse, in vivo) is 1/10 and 0/10.
Consider `CN(C)c1ccc(S(=O)(=O)NC(=O)Nc2ccc(Cl)cc2)cc1` [Example 1, N-[[(4-chlorophenyl)amino]carbonyl]-4-(dimethylamino)benzenesulfonamide], for which the “Toxic/Total (mice which died relative to total in group)” value was 0/10 in data set [1] (6C3HED, 37.5 mg/kg, oral gavage daily for 8 days); 0/10 in data set [1] (6C3HED, 75 mg/kg, oral gavage daily for 8 days); 0/10 in data set [1] (setting [4]); 0/10 in data set [1] (setting [5]); 10/10 in data set [1] (setting [7]). For the same compound, the “Percent Inhibition of tumor growth” value in data set [1] (setting [7]) was “Toxic”. The inhibition in vivo at 37.5 mg/kg in data set [1] (setting [6]) stood at 80%. Besides, the inhibition in vivo at 75 mg/kg in data set [1] (setting [6]) is 99%. Further, the inhibition in vivo at 150 mg/kg in data set [1] (setting [6]) was determined as 100%. Moreover, in data set [1] (setting [6]), the inhibition in vivo at 300 mg/kg was found to be 100%.
For the compound `O=C(Nc1ccc(Cl)cc1)NS(=O)(=O)c1ccc(N2CCOCC2)cc1` [Example 6, N-[[(4-chlorophenyl)amino]-carbonyl]-4-(4-morpholinyl) benzenesulfonamide], the “Toxic/Total (mice which died relative to total in group)” value in data set [1] (setting [4]) and in data set [1] (setting [5]) was 0/10 in each case. The inhibition in vivo at 150 mg/kg in data set [1] (setting [6]) was 17%. Also, the inhibition in vivo at 300 mg/kg in data set [1] (setting [6]) is 38%.
As to `CCNc1ccc(S(=O)(=O)NC(=O)Nc2ccc(Cl)cc2)cc1` [Example 5, N-[[(4-chlorophenyl)amino]carbonyl]-4-(ethylamino)benzenesulfonamide], the “Toxic/Total (mice which died relative to total in group)” value in data set [1] (setting [5]) is 0/10. The inhibition in vivo at 300 mg/kg in data set [1] (setting [6]) was determined as 74%.
For `CNc1ccc(S(=O)(=O)NC(=O)Nc2ccc(Cl)cc2)cc1` [Example 9], in data set [1] (setting [5]), the “Toxic/Total (mice which died relative to total in group)” value is on record as 0/10 and the “Percent Inhibition of tumor growth” value came out at 100%. Moreover, in data set [1] (setting [7]), the “Toxic/Total (mice which died relative to total in group)” value is 0/10 and the “Percent Inhibition of tumor growth” value was determined as 100%.
